Data as given in ChEMBL document CHEMBL1136697, “3D-QSAR studies on thieno[3,2-d]pyrimidines as phosphodiesterase IV inhibitors” (Bioorg Med Chem Lett, 2003).

What follows are compounds tested against Phosphodiesterase 4 (Cavia porcellus) (assay: Inhibitory activity against (PDE IV) phosphodiesterase IV in guinea pig articular tissue).

IC50	Structure (SMILES)
1.1 µM	CCCCc1nc(NCc2ccccc2)c2occc2n1
65 µM	c1ccc(CNc2nc(CN3CCCCC3)nc3ccsc23)cc1
4.7 µM	c1ccc(CNc2nc(CCCCOc3ccccc3)nc3ccsc23)cc1
